The text below walks through data of paper PMC12519234 (2025).

In test [1] the test system is queT (41 nt) (RNA, riboswitch) ACGUGGUUCAUUCAUACCAUCCCACGUAAAAAAACUAGGAG
Nature of the test: 1H NMR imino spectra. The conditions noted are these: 25 mM NaCl, 2 mM MgCl2; 15 mM sodium cacodylate pH 6.5, 25 °C, 0.15 mM RNA.

The test system of test [2] is preQ1-like (40 nt, lmo2684 upstream region) (RNA, mRNA element) UACAGCUAGCUAGCUGAAAAUUAUAAAAAACUAAAGAGGU
As to the kind of experiment: 1H NMR imino spectra. The following applies: 25 mM NaCl, 2 mM MgCl2; 15 mM sodium cacodylate pH 6.5, 25 °C, 0.15 mM RNA; no high affinity association.

Test [3] concerns Tte preQ1 U22Ap (RNA, riboswitch, 2-aminopurine at 22 (replaces U)) CUGGGUCGCAGUAACCCCAGUUAACAAAACAAG
Nature of the test: 2-aminopurine fluorescence titration. The conditions noted are these: 100 mM KCl, 2 mM MgCl2; 50 mM MOPS pH 7.5, 25 °C, 0.5 µM RNA.

Test [4] has the same test system. As to the kind of experiment: stopped-flow 2-aminopurine fluorescence. The following applies: 100 mM KCl, 2 mM MgCl2; 50 mM MOPS pH 7.5, 25 °C.
For test [5] the test system is unchanged. Nature of the test: stopped-flow 2-aminopurine fluorescence; koff = kon × KD. The conditions noted are these: 100 mM KCl, 2 mM MgCl2; 50 mM MOPS pH 7.5, 25 °C; calculated, one approximate value for preQ1 and 4a.

Consider `NCc1c[nH]c2nc(N)[nH]c(=O)c12`, for which the binding entry in test [1] is listed as “yes”; in test [2] it was “no”. In addition, the “KD(preQ1)” value in test [3] is recorded as 64 nM. Besides, the “kon(preQ1)” value in test [4] was 13000 M⁻¹ s⁻¹. Also, the koff in test [5] is on record as ~ 7.5 × 10^−4 s^−1.
